Results reported in patent US12358901B2, “KV3 modulators” (priority 2018, dated 2025).

Columns and labels:
[1] = target: human Kv3.1 channels (hKv3.1) (Homo sapiens, UniProt P48547); test: cell-based; format: cell-based; settings: for Kv3.1 pEC50: HEK-hKv3.1 cells, -15 mV voltage step, normalised to 50 microM reference compound; for Kv3.1 max R %: maximum response relative to reference compound (50 microM)
From the text: The ability of the compounds of the invention to modulate the voltage-gated potassium channel subtypes Kv3.3/Kv3.2/Kv3.1 may be determined using the following assay. Analogous methods may be used to investigate the ability of the compounds of the invention to modulate other channel subtypes.
To assess compound effects on human Kv3.1 channels (hKv3.1):
Human embryonic kidney (HEK)-hKv3.1 cell line is generated by transfecting HEK-293 cells with an expression vector with human Kv3.1 (NM_004976.4). Cells are cultured with MEM supplemented with 10% Heat-Inactivated FBS, 2 mM L-glutamine, 1% Penicillin-Streptomycin, and 0.6 mg/ml of Geneticin (G418). HEK-hKv3.1b cells were amplified in T175 cm2 flask at 37° C. with 5% CO2, using MEM amplification medium, containing the G418 selection antibiotic (0.6 mg/ml). Cells were detached every 3-4 days, using DPBS to wash twice the flask, then TrypLE to dislodge the cells, and re-plated at a density of 2-4×10^6 cells/flask.
The day of the experiment, cells are removed from the incubator and the culture medium removed. Cells are washed with 5 ml of Dulbecco's PBS (DPBS) calcium and magnesium free and detached by the addition of 3 ml Versene (Invitrogen, Italy) followed by a brief incubation at 37° C. for 5 minutes. The flask is tapped to dislodge cells and 10 ml of DPBS containing calcium and magnesium is added to prepare a cell suspension. The cell suspension is then placed into a 15 ml centrifuge tube and centrifuged for 2 min at 1200 rpm. After centrifugation, the supernatant is removed and the cell pellet re-suspended in 4 ml of DPBS containing calcium and magnesium using a 5 ml pipette to break up the pellet. Cell suspension volume is then corrected to give a cell concentration for the assay of approximately 3 million cells per ml.
Experiments are conducted at r.t. using IonWorks Quattro™ planar array electrophysiology technology (Molecular Devices Corp.) with PatchPlate™ PPC. Stimulation protocols and data acquisition are carried out using a microcomputer (Dell Pentium 4). Planar electrode hole resistances (Rp) are determined by applying a 10 mV voltage step across each well. These measurements are performed before cell addition. After cell addition and seal formation, a seal test is performed by applying a voltage step from −80 mV to −70 mV for 160 ms. Following this, amphotericin-B solution is added to the intracellular face of the electrode to achieve intracellular access. Cells are held at −70 mV. Leak subtraction is conducted in all experiments by applying 50 ms hyperpolarizing (10 mV) prepulses to evoke leak currents followed by a 20 ms period at the holding potential before test pulses.
For hKv3.2 and hKv3.1, assays from the holding potential of −70 mV, a first test pulse at −15 mV was applied for 100 ms and after 100 ms at −70 mV a second pulse at +40 mV was applied for 50 ms. Cells were then maintained for 100 ms at −100 mV and another pulse from −70 mV to +40 mV (duration 50 ms) was applied to clamp later the voltage at −40 mV during 200 ms
The intracellular solution contains the following (in mM): K-gluconate 100, KCl 54, MgCl2 3.2, HEPES 5, adjusted to pH 7.3 with KOH. Amphotericin-B solution is prepared as 50 mg/ml stock solution in DMSO and diluted to a final working concentration of 0.1 mg/ml in intracellular solution. The external solution is Dulbecco's Phosphate Buffered Saline (DPBS) and contained the following (in mM): CaCl2 0.90, KCl 2.67, KH2PO4 1.47, MgCl·6H2O 0.493, NaCl 136.9, Na3PO4 8.06, with a pH of 7.4.
Compounds of use in the invention (or reference compounds such as N-cyclohexyl-N-[(7,8-dimethyl-2-oxo-1,2-dihydro-3-quinolinyl)methyl]-N-phenylurea) are dissolved in dimethylsulfoxide (DMSO) at a stock concentration of 10 mM. These solutions are further diluted with DMSO using a Biomek FX (Beckman Coulter) in a 384 compound plate. Each dilution (1 μL) is transferred to another compound plate and external solution containing 0.05% pluronic acid (66 μL) is added. […]

[2] = Determination of brain tissue binding (equilibrium dialysis); format: in vitro ADME; settings: Sprague Dawley, rat whole brain homogenate, 5 h at 37° C.
Protocol: Sprague Dawley rat whole blood, collected on the week of the experiment using K3-EDTA as an anti-coagulant, is diluted with isotonic phosphate buffer 1:1 (v/v). Sprague Dawley rat whole brain, stored frozen at −20° C., is thawed and homogenised in artificial cerebrospinal fluid (CSF) 1:2 (w/v).
An appropriate amount of test compound is dissolved in DMSO to give a 10 millimolar solution. Further dilutions, to obtain a 166.7 micromolar working solution are then prepared using 50% acetonitrile in MilliQ water. This working solution is used to spike the blood to obtain a final concentration of 0.5 micromolar in whole blood. Similarly, the working solution is used to spike brain samples to obtain a final concentration of 5 micromolar in whole brain. From these spiked blood and brain preparations, control samples (n=3), are immediately extracted and used to calculate the initial recovery of the test items.
150 microL of compound-free buffer (isotonic phosphate buffer for blood or artificial CSF buffer for brain) is dispensed in one half-well and 150 microL of spiked matrix (blood or brain) is loaded in the other half-well, with the two halves separated by a semi-permeable membrane. After an equilibration period of 5 h at 37° C., 50 microL of dialysed matrix (blood or brain) is added to 50 microL of corresponding compound-free buffer, and vice-versa for buffer, such that the volume of buffer to matrix (blood or brain) remains the same. Samples are then extracted by protein precipitation with 300 microL of acetonitrile containing rolipram (control for positive ionization mode) or diclofenac (control for negative ionization mode) as internal standards and centrifuged for 10 min at 3000 rpm. Supernatants are collected (100 microL), diluted with 27% AcN in MilliQ water (200 microL) and then injected into an HPLC-MS/MS or UPLC-MS/MS system to determine the concentration of test compound present.
Blood and brain tissue binding are then determined using the following formulas: Afu=Buffer/Blood or Afu=CSF/Brain
Where Afu=apparent fraction unbound; Buffer=analyte/internal standard ratio determined in the buffer compartment; Blood=analyte/internal standard ratio determined in the blood compartment; Brain=analyte/internal standard ratio determined in the brain compartment.
[formula] where: fucr=Fraction unbound corrected; D=matrix dilution factor (D=2 for blood and D=3 for brain).
Then: % Binding=(1−fucr)×100 % Unbound=100−% Bound Brain/Blood Partition Ratio (Kbb) Determination

Structure (SMILES) | Kv3.1 pEC50 [1] | Kv3.1 max R % [1] [%] | fraction unbound at 5 h, 5 micromolar [2] | pEC50 and maxR in the Kv3.1 assay (in words) [1]
CC1(C)NC(=O)N(c2cnc(Oc3cccc4c3C(C)(C)CO4)cn2)C1=O [Example 2, 3-[5-[(3,3-dimethyl-2H-benzofuran-4-yl)oxy]pyrazin-2-yl]-5,5-dimethyl-imidazolidine-2,4-dione] | 4.68 | 149 |  | 
CC[C@@]1(C)NC(=O)N(c2cnc(Oc3cccc4c3C3(CC3)CO4)cn2)C1=O [Example 3, (5R)-5-ethyl-5-methyl-3-(5-spiro[2H-benzofuran-3,1′-cyclopropane]-4-yloxypyrazin-2-yl)imidazolidine-2,4-dione] | 5.15 | 205 |  | 
CC1(C)NC(=O)N(c2cnc(Oc3cccc4c3C3(CC3)CO4)cn2)C1=O [Example 4, 5,5-dimethyl-3-(5-spiro[2H-benzofuran-3,1′-cyclopropane]-4-yloxypyrazin-2-yl)imidazolidine-2,4-dione] | 5.17 | 170 |  | 
CC[C@@]1(C)NC(=O)N(c2cnc(Oc3ccc(C)c4c3C3(CC3)CO4)cn2)C1=O [Example 5, (5R)-5-ethyl-5-methyl-3-[5-(7-methylspiro[2H-benzofuran-3,1′-cyclopropane]-4-yl)oxypyrazin-2-yl]imidazolidine-2,4-dione] | 5.69 | 149 |  | 
CC[C@@]1(C)NC(=O)N(c2cnc(Oc3cccc4c3C(C)(C)CO4)cn2)C1=O [Example 6, (5R)-3-[5-[(3,3-dimethyl-2H-benzofuran-4-yl)oxy]pyrazin-2-yl]-5-ethyl-5-methyl-imidazolidine-2,4-dione] | 4.75 | 165 |  | 
Cc1ccc(Oc2cnc(N3C(=O)NC(C)(C)C3=O)cn2)c2c1OCC2(C)C [Example 7, 5,5-dimethyl-3-[5-[(3,3,7-trimethyl-2H-benzofuran-4-yl)oxy]pyrazin-2-yl]imidazolidine-2,4-dione] | 5.12 | 134 |  | 
CC[C@@]1(C)NC(=O)N(c2cnc(Oc3ccc(C)c4c3C(C)(C)CO4)cn2)C1=O [Example 8, (5R)-5-ethyl-5-methyl-3-[5-[(3,3,7-trimethyl-2H-benzofuran-4-yl)oxy]pyrazin-2-yl]imidazolidine-2,4-dione] | 5.29 | 119 |  | 
CC[C@H]1NC(=O)N(c2cnc(Oc3cccc4c3C(C)(C)CO4)cn2)C1=O [Example 11, (5R)-3-[5-[(3,3-dimethyl-2H-benzofuran-4-yl)oxy]pyrazin-2-yl]-5-ethyl-imidazolidine-2,4-dione] | 4.89 | 165 |  | 
CC[C@H]1NC(=O)N(c2cnc(Oc3ccc(C)c4c3C(C)(C)CO4)cn2)C1=O [Example 12, (5R)-5-ethyl-3-[5-[(3,3,7-trimethyl-2H-benzofuran-4-yl)oxy]pyrazin-2-yl]imidazolidine-2,4-dione] | 5.56 | 118 |  | 
Cc1ccc(Oc2cnc(N3C(=O)NC4(CCC4)C3=O)cn2)c2c1OCC21CC1 [Example 13, 7-[5-(7-methylspiro[2H-benzofuran-3,1′-cyclopropane]-4-yl)oxypyrazin-2-yl]-5,7-diazaspiro[3.4]octane-6,8-dione] | 5.09 | 165 |  | 
Cc1ccc(Oc2cnc(N3C(=O)NC4(CC4)C3=O)cn2)c2c1OCC21CC1 [Example 14, 6-[5-(7-methylspiro[2H-benzofuran-3,1′-cyclopropane]-4-yl)oxypyrazin-2-yl]-4,6-diazaspiro[2.4]heptane-5,7-dione] | 5.51 | 145 |  | 
Cc1ccc(Oc2ncc(N3C(=O)NC(C)(C)C3=O)cn2)cc1OC(F)(F)F [RE1, reference compound] | 4.78 | 105 |  | 
Cc1ccc(Oc2ccc(N3C(=O)NC(C)(C)C3=O)cn2)cc1OC(F)(F)F [RE2, reference compound] | 5.25 | 118 |  | 
Cc1ccc(Oc2ccc(N3C(=O)NC(C)(C)C3=O)nc2)cc1OC(F)(F)F [RE3, reference compound] | 4.89 | 79 |  | 
Cc1ccc(Oc2cnc(N3C(=O)NC(C)(C)C3=O)cn2)cc1OC(F)(F)F [RE4, reference compound] | <4.3 | 24 |  | 
Cc1ccc(Oc2ccc(N3C(=O)NC(C)(C)C3=O)nc2)c2c1OCC21CC1 [RE7, reference compound] | 5.56 | 130 | 0.023 | 
Cc1ccc(Oc2cnc(N3C(=O)NC(C)(C)C3=O)nc2)c2c1OCC21CC1 [RE8, reference compound] | 4.98 | 42 |  | 
Cc1ccc(Oc2ccc(N3C(=O)NC(C)(C)C3=O)nn2)c2c1OCC21CC1 [RE9, reference compound] | <4.3 | 16 |  | 
Cc1ccc(Oc2cncc(N3C(=O)NC(C)(C)C3=O)n2)c2c1OCC21CC1 [RE10, reference compound] | <4.3 | 22 |  | greatly reduced pEC50 and maxR
CC[C@H]1NC(=O)N(c2ccc(Oc3ccc(C)c4c3C3(CC3)CO4)cn2)C1=O [RE12, reference compound] | 5.6 | 149 | 0.019 | 
CC[C@H]1NC(=O)N(c2ccc(Oc3cccc4c3C3(CC3)CO4)cn2)C1=O [RE14, reference compound] | 5.2 | 150 | 0.058 | 
